Measurements: patent US8318762B2, “Pyrazolospiroketone acetyl-CoA carboxylase inhibitors” (Pfizer Inc., priority 2008, dated 2012)

Key:
[1] = test system: malonyl-CoA levels in liver; assay: Acute in vivo assessment of ACC inhibition: malonyl-CoA levels in liver tissue; set-up: species or system male Sprague-Dawley Rats; settings: relative to chow-fed vehicle control group, % decrease +/- SEM
Method: (§1) The ACC inhibitory activity of the compound of the present invention can be confirmed in vivo by evaluation of their ability to reduce malonyl-CoA levels in liver and muscle tissue from treated animals.
(§2) Measurement of malonyl-CoA production inhibition in experimental animals. In this method, male Sprague-Dawley Rats, maintained on standard chow and water ad libitum (225-275 g), were randomized prior to the study. Animals were either fed, or fasted for 18 hours prior to the beginning of the experiment. Two hours into the light cycle the animals were orally dosed with a volume of 5 mL/kg, (0.5% methyl cellulose; vehicle) or with the appropriate compound (prepared in vehicle). Fed vehicle controls were included to determine baseline tissue malonyl-CoA levels while fasted animals were included to determine the effect fasting had on malonyl-CoA levels. One hour after compound administration the animals were asphyxiated with CO2 and the tissues were removed. Specifically, blood was collected by cardiac puncture and placed into BD Microtainer tubes containing EDTA (BD Biosciences, NJ), mixed, and placed on ice. Plasma was used to determine drug exposure. Liver and quadriceps were removed, immediately freeze-clamped, wrapped in foil and stored in liquid nitrogen.
(§3) Tissues were pulverized under liquid N2 to ensure uniformity in sampling. Malonyl-CoA was extracted from the tissue (150-200 mg) with 5 volumes 10% […] in Lysing Matrix A (MP Biomedicals, PN 6910) in a FastPrep FP120 (Thermo Scientific, speed=5.5; for 45 seconds). The supernatant containing malonyl-CoA was removed from the cell debris after centrifugation at 15000×g for 30 minutes (Eppendorf Centrifuge 5402). Samples were stably frozen at −80 C until analysis is completed.
(§4) Analysis of malonyl CoA levels in liver and muscle tissue can be evaluated using the following methodology.
(§5) The method utilizes the following materials: Malonyl-CoA tetralithium salt and malonyl-^13C3-CoA trilithium salt which were purchased from Isotec (Miamisburg, Ohio, USA), sodium perchlorate (Sigma, cat no. 410241), trichloroacetic acid (ACROS, cat no. 42145), phosphoric acid (J. T. Baker, cat no. 0260-01), ammonium formate (Fluke, cat no. 17843), methanol (HPLC grade, J. T. Baker, cat no. 9093-33), and water (HPLC grade, J. T. Baker, 4218-03) were used to make the necessary mobile phases. Strata-X on-line solid phase extraction columns, 25 μm, 20 mm×2.0 mm I.D (cat no. 00M-S033-B0-CB) were obtained from Phenomenex (Torrance, Calif., USA). SunFire C18 reversed-phase columns, 3.5 μm, 100 mm×3.0 mm I.D. (cat no. 186002543) were purchased from Waters Corporation (Milford, Mass., USA).
(§6) This method may be performed utilizing the following equipment. Two-dimensional chromatography using an Agilent 1100 binary pump, an Agilent 1100 quaternary pump and two Valco Cheminert 6-port two position valves. Samples were introduced via a LEAP HTC PAL auto sampler with Peltier cooled stack maintained at 10° C. and a 20 μL sampling loop. The needle wash solutions for the autosampler are 10% trichloroacetic acid in water (w/v) for Wash 1 and 90:10 methanol:water for Wash 2. The analytical column (Sunfire) was maintained at 35° C. using a MicroTech Scientific Micro-LC Column Oven. The eluant was analyzed on an ABI Sciex API3000 triple quadrupole mass spectrometer with Turbo Ion Spray.
(§7) Two-dimensional chromatography was performed in parallel using distinct gradient elution conditions for on-line solid phase extraction and reversed-phase chromatography. The general design of the method was such that the first dimension was utilized for sample clean-up and capture of the analyte of interest followed by a brief coupling of both dimensions for elution from the first dimension onto the second dimension. The dimensions were subsequently uncoupled allowing for gradient elution of the analyte from the second dimension for quantification while simultaneously preparing the first dimension for the next sample in the sequence. […]

recombinant human ACC2 = target: T1, recombinant human ACC2 (Homo sapiens, UniProt O00763); assay: Measurement of human ACC2 inhibition (recombinant hACC2 Transcreener ADP detection FP assay); format: biochemical; settings: recombinant hACC2 transcreener assay; read-out: rhACC2 IC50
T1 construct: a full length Cytomax clone of ACC2 was purchased from Cambridge Bioscience Limited; made in house; host or cells: CHO cells (tetracycline induction, pcDNA5 FRT TO-TOPO); purified on a Softlink Soft Release Avidin column
T1 sequence (O00763 whole entry): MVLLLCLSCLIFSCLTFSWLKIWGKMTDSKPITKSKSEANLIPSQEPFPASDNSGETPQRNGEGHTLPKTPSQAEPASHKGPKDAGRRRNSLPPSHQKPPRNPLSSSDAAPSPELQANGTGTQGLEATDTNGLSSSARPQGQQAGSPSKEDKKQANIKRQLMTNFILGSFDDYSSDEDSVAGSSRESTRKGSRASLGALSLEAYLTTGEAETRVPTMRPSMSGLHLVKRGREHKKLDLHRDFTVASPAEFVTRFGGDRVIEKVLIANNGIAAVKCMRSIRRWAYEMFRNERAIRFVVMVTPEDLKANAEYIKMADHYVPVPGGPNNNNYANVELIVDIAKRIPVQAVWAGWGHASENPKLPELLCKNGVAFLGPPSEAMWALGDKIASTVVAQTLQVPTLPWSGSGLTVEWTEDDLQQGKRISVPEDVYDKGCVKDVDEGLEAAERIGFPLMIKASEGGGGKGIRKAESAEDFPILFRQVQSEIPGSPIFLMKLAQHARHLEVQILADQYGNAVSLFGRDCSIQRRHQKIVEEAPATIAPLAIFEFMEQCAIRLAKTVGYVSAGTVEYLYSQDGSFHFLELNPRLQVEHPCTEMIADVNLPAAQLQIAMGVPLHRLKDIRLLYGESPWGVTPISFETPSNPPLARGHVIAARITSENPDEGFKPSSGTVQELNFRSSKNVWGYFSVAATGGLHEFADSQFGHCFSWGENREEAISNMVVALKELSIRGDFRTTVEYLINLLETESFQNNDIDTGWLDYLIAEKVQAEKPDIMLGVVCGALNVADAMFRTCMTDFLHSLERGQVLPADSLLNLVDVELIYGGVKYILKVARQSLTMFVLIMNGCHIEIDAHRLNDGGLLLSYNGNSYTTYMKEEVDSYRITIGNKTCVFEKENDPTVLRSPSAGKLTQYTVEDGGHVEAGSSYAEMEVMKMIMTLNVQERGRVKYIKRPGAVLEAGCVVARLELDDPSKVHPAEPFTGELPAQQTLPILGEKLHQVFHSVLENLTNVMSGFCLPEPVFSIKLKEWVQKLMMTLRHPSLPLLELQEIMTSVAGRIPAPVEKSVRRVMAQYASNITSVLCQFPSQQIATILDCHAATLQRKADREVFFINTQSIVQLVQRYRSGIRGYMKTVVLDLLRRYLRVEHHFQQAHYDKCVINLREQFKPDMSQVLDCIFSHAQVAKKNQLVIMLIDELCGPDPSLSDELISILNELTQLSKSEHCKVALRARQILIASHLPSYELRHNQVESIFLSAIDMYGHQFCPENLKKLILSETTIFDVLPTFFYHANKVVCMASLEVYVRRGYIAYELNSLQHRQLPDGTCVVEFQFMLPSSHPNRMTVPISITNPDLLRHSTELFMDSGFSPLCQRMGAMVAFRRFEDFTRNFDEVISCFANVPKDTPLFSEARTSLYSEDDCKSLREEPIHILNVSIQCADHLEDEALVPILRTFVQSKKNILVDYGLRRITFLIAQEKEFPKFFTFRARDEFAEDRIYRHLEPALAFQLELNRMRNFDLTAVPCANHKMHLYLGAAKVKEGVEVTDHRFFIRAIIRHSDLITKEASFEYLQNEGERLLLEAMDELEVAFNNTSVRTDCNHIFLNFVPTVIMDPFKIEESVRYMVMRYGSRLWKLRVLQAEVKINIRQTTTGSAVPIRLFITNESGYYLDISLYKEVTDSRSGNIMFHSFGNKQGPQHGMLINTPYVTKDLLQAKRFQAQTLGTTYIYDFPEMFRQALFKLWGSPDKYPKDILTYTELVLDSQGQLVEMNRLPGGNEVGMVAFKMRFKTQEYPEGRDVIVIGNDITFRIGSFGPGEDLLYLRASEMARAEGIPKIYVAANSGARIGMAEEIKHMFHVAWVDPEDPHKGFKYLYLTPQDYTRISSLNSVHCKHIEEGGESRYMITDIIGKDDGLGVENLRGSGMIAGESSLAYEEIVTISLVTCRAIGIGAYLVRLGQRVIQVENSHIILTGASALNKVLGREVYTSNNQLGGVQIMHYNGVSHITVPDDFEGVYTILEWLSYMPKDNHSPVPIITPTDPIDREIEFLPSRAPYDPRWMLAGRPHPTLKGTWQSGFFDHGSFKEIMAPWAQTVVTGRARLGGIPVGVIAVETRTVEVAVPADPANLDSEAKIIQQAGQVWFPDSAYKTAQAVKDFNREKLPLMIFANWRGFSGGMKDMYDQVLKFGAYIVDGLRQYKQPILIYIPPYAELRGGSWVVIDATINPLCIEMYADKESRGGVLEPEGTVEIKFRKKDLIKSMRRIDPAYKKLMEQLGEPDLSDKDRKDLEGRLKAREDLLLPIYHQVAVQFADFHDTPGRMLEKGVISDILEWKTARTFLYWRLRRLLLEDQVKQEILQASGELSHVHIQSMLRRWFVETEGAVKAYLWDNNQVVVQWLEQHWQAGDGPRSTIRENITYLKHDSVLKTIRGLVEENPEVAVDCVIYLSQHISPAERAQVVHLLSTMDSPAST
Outline: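 Purified hACC2 from tetracycline-induced CHO cells (avidin-column eluate) was run in 50 mM HEPES pH7.5, 5 mM MgCl2, 5 mM citrate, 2 mM DTT, 0.5 mg/mL BSA with 30 μM acetyl-CoA, 50 μM ATP and 8 mM KHCO3. Reaction lasted 1 hour at room temperature; ADP was detected by Transcreener FP after another 1 hour.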

[2] = test system: malonyl-CoA levels in muscle tissue; assay: Acute in vivo assessment of ACC inhibition: malonyl-CoA levels in muscle tissue (quadriceps); set-up: species or system male Sprague-Dawley Rats; settings: relative to chow-fed vehicle control group, % decrease +/- SEM
Method: as §1, §2, §3, §4, §5, §6, §7

rat liver ACC = rat liver ACC (Rattus norvegicus, UniProt P11497); format: biochemical; settings: rat liver ACC radio enzymatic assay
Method: [1] Preparation of rat liver ACC. Rat liver ACC was obtained from rat liver based upon standard procedures such as those described by Thampy and Wakil (J. Biol. Chem. 260: 6318-6323; 1985) using the following method.
Male CD rats weighing 150-200 g were fasted for 18-24 hours and then fed a high sucrose diet (AIN-76A rodent diet; Cat # D10001, Research Diets Inc., New Brunswick, N.J.), for 3 days at which time they were sacrificed by CO2 asphyxiation. The livers were removed, rinsed in ice-cold phosphate-buffered saline (PBS), and homogenized in 5 volumes of homogenization buffer (50 mM potassium phosphate, pH 7.5, 10 mM EDTA, 10 mM 2-mercaptoethanol, 2 mM benzamidine, 0.2 mM phenylmethylsulfonylfluoride (PMSF), 5 mg/L each leupeptin, aprotinin, and antitrypsin) in a Waring® blender for 1 minute at 4° C. All subsequent operations were carried out at 4° C. The homogenate has made 3% with respect to polyethylene glycol (PEG) by the addition of 50% PEG solution and centrifuged at 20,000×g for 15 minutes. The resulting supernatant was adjusted to 5% PEG with the addition of 50% PEG solution and stirred for 5 minutes. The pellet (contains ACC activity) was collected by centrifugation at 20,000×g for 20 minutes, rinsed with ice-cold doubly distilled water to remove excess PEG and re-suspended in one-fourth the original homogenate volume with homogenization buffer. Ammonium sulfate (200 g/liter) was slowly added with stirring. After 45 minutes the enzyme is collected by centrifugation for 30 minutes at 20,000×g, re-suspended in 10 mL of 50 mM HEPES, pH7.5, 0.1 mM DTT, 1.0 mM EDTA, and 10% glycerol and desalted on a Sephadex™ G-25 column (2.5 cm×50 cm) (Pharmacia, Piscataway N.J. now GE Healthcare) equilibrated with the same buffer. The desalted enzyme preparation was stored in aliquots at −70° C. Immediately prior to use, frozen rat liver ACC aliquots were thawed, diluted to 500 μg/mL in buffer containing 50 mM HEPES, pH7.5, 10 mM MgCl2, 10 mM tripotassium citrate, 2.0 mM dithiothreitol (DTT), and 0.75 mg/mL fatty acid-free bovine serum albumin (BSA) and pre-incubated at 37° C. for 30 minutes.
[2] Measurement of rat liver ACC inhibition. For measurement of ACC activity and assessment of ACC inhibition, test compounds were dissolved in dimethylsulfoxide (DMSO) and 1 μL aliquots were added to a clear bottom, 96-well plates (Perkin-Elmer PN#1450-514). Control wells contain 1 μL of DMSO alone or 1 μL of high inhibition compound. The enzyme obtained from rat liver as described above was activated in Enzyme buffer at 37° C. for 30 minutes prior to addition to compound plate. All wells receive 75 μL of activated enzyme (1.33×) in a buffer containing 50 mM HEPES, pH7.5, 7.5 mM MgCl2 7.5 mM tripotassium citrate, 2 mM DTT, 50 mg/mL BSA. The activated enzyme was pre-incubated with the cmpd for 10 minute prior to initiating the reaction through the addition of 25 μL of substrate solution containing 50 mM HEPES, pH7.5, 7.5 mM MgCl2 7.5 mM tripotassium citrate, 2 mM DTT, 50 mg/mL BSA, 120 μM acetyl-CoA, 8.0 mM ATP, 38.4 mM KHCO3, and 1.6 mM NaH[^14C]O3 ([…]). The final substrate concentrations in the reaction were 30 μM Acetyl-CoA, 9.6 mM KHCO3, 0.4 mM NaH[^14C]O3, and 2 mM ATP. The reaction was terminated after 10 mins by the addition of 25 μL 3N HCl and the plates were dried at 50° C. for a minimum 20 hrs. 30 μL of water was added to the dried plate and mixed for 5 minutes. 95 μL of Optiphase Supermix liquid scintillation fluid (Perkin Elmer, Waltham, Mass.) was added and the plates are mixed for 20 minutes. Incorporation of ^14C into MCoA was measured using a Wallac Trilux 1450 Microbeta LSC luminescence counter.

Structure (SMILES) | Percent decrease in Liver Malonyl-CoA ([1]; dose 1 mg/kg) | Percent decrease in Liver Malonyl-CoA ([1]; dose 3 mg/kg) | Percent decrease in Liver Malonyl-CoA ([1]; dose 10 mg/kg) | Percent decrease in Liver Malonyl-CoA ([1]; dose 30 mg/kg) | IC50 (recombinant human ACC2) | Percent decrease in Muscle Malonyl-CoA (quadriceps) ([2]; dose 1 mg/kg) | Percent decrease in Muscle Malonyl-CoA (quadriceps) ([2]; dose 3 mg/kg) | Percent decrease in Muscle Malonyl-CoA (quadriceps) ([2]; dose 10 mg/kg) | Percent decrease in Muscle Malonyl-CoA (quadriceps) ([2]; dose 30 mg/kg) | IC50 (rat liver ACC)
CCn1nc2c(c1C)OC1(CCN(C(=O)c3cc(C)c4[nH]nc(C)c4c3)CC1)CC2=O [1.001] | 28.29 (8.40) % | 30.37 (11.50) % | 45.45 (3.51) % | 54.31 (7.63) % | 11 nM | 5.69 (8.73) % | 2.90 (4.29) % | 22.83 (5.72) % | 48.03 (2.63) % | 
CCn1cc2c(n1)C(=O)CC1(CCN(C(=O)c3cc(C)c4[nH]nc(C)c4c3)CC1)O2 [1.003] | 31.45 (4.12) % | 47.61 (4.70) % | 67.40 (5.67) % | 70.47 (2.48) % | 11 nM | −3.72 (8.87) % | 21.23 (8.81) % | 33.30 (4.83) % | 48.81 (3.51) % | 
Cc1n[nH]c2c(C)cc(C(=O)N3CCC4(CC3)CC(=O)c3nn(C(C)(C)C)cc3O4)cc12 [1.012] | 40.32 (6.24) % | 54.87 (3.22) % | 75.72 (2.47) % | 86.52 (1.49) % | 2 nM | 31.53 (3.58) % | 43.01 (4.24) % | 59.48 (5.28) % | 71.08 (2.18) % | 
Cc1n[nH]c2c(C)cc(C(=O)N3CCC4(CC3)CC(=O)c3nn(C5CCOC5)c(C)c3O4)cc12 (stereo not drawn) [1.015] |  |  |  |  | 20 nM |  |  |  |  | 21 nM
Cc1cc(C(=O)N2CCC3(CC2)CC(=O)c2nn(C(C)C)cc2O3)cc2cn[nH]c12 [1.022] |  |  |  |  | 28 nM |  |  |  |  | 22 nM
CCn1nc2c(c1C)OC1(CCN(C(=O)c3cc(C)c4[nH]ncc4c3)CC1)CC2=O [1.023] |  |  |  |  | 31 nM |  |  |  |  | 28 nM
CCCn1cc2c(n1)C(=O)CC1(CCN(C(=O)c3cc(C)c4[nH]ncc4c3)CC1)O2 [1.027] |  |  |  |  | 43 nM |  |  |  |  | 48 nM
Cc1cc(C(=O)N2CCC3(CC2)CC(=O)c2nn(C4CCCC4)cc2O3)cc2cn[nH]c12 [1.038] |  |  |  |  | 9 nM |  |  |  |  | 14 nM
Cc1cc(C(=O)N2CCC3(CC2)CC(=O)c2nn(C4CCC4)cc2O3)cc2cn[nH]c12 [1.039] |  |  |  |  | 13 nM |  |  |  |  | 15 nM
Cc1cc(C(=O)N2CCC3(CC2)CC(=O)c2nn(C(C)(C)C)cc2O3)cc2cn[nH]c12 [1.042] | 41.87 (2.70) % | 48.07 (8.08) % | 71.81 (2.36) % | 86.50 (0.72) % | 4 nM | 29.90 (5.21) % | 27.60 (5.87) % | 61.60 (5.38) % | 74.70 (1.37) % | 
CCOc1cc(C(=O)N2CCC3(CC2)CC(=O)c2nn(CC)c(C)c2O3)cc2c(CC)n[nH]c12 [1.119] |  |  |  |  | 18 nM |  |  |  |  | 13 nM
CCOc1cc(C(=O)N2CCC3(CC2)CC(=O)c2nn(C(C)C)cc2O3)cc2cn[nH]c12 [1.123] |  |  |  |  | 14 nM |  |  |  |  | 16 nM
CCC(C)n1nc2c(c1C)OC1(CCN(C(=O)c3ccc4[nH]nc(C)c4c3)CC1)CC2=O (stereo not drawn) [1.137] |  |  |  |  | 9 nM |  |  |  |  | 17 nM
CCC(C)n1cc2c(n1)C(=O)CC1(CCN(C(=O)c3ccc4[nH]nc(C)c4c3)CC1)O2 (stereo not drawn) [1.141] |  |  |  |  | 19 nM |  |  |  |  | 32 nM
Cc1c(C(=O)N2CCC3(CC2)CC(=O)c2nn(C(C)(C)C)cc2O3)ccc2[nH]ncc12 [1.147] |  |  |  |  | 49 nM |  |  |  |  | 15 nM
Cc1nc2c(C)cc(C(=O)N3CCC4(CC3)CC(=O)c3nn(C(C)(C)C)cc3O4)cc2[nH]1 [3.003] |  |  |  |  | 4 nM |  |  |  |  | 10 nM
